According to US8163803B2 (Fundação Oswaldo Cruz—FIOCRUZ, priority 2004, dated 2012):

How the values were obtained:
[1] = system: isolated ileum of an experimental animal; assay: Anaphylactic contraction of isolated ileum induced by antigen (ovoalbumin); details: antigen (10 μg/ml), average ±SEM, at least 3 animals; read-out: Stimulation with antigen IC50
Experimental: (§1) Female and male experimental animals were used, weighing between 300 and 400 g, they came from Oswaldo Cruz Foundation's Center of Laboratory Animal Raising. The procedures involving the animals were examined and approved by Oswaldo Cruz Foundation's Committee of Animal Ethics (CEUA-FIOCRUZ, Licenca no. 00085-02). The animals were sensitized through a subcutanous injection with a mixture of 50 μg ovoalbumin and 5 mg Al(OH)3. From fourteen to thirty days after the sensitization, the experimental, animal was sacrificed in a chamber of carbonic gas to have its abdomen open and the location of the ileocecal valve. At this point, the intestine was sectioned and a segment of the small intestine, about 20 cm (equivalent to the ileum) was carefully removed and internally washed with a warmed solution (37° C.) of Tyrode (Composition in mM) (NaCl 137; KCl 2.7; NaH2PO4 0.42; NaHCO3 11.9; MgCl2 0.5; CaCl2 1.8; glucose 5.6) to remove the fecal content. […].
(§2) About 3-cm ileum fragments were vertically mounted in 10 ml glass cuvettes, immersed in Tyrode's solution at 37° C., aerated with carbogen (O2, 95% and CO2, 5%) and supplemented with atropine according to the standard procedure. The tissue had one of its ends tied to a rod while the other end was coupled with a transductor after the transference from the rod to the cuvette. The contractions were isotonically registered (basal tension of 1 g) with the support of a transductor of displacement-force connected to a computerized system to capture data. After a 30 minute period of balance, each segment was repeatedly stimulated by histamine (1 μM) until response stabilization. To induce anaphylatic contraction, ileum segments from sensitized experimental animals were stimulated by ovoalbumin (10 μg/ml). […]. The results were presented as a percentage of inhibition calculated in relation to the contractive effect obtained from stimulated and non-treated preparations.
(§3) Concentration-response data were adjusted through non-linear regression curves with the assistence of a graphics software (GraphPad Prism, USA). The concentration of an antagonist needed to inhibit the contractive response to inhibit the contractive response after stimulation by histamine or antigen at 50% (IC50) was used to compare the anti-spasmodic potency. The values expressed as an average ± standard error of the mean and statistically analysed through the test of analysis variance (ANOVA), followed by the Newman-Keuls-Student test.

[2] = system: isolated ileum of an experimental animal; assay: Contraction of isolated ileum induced by histamine; details: histamine (5 μM), average ±SEM, at least 3 animals; read-out: Stimulation with histamine IC50
Experimental: as §1, §2, §3

[3] = system: dorsal subcutaneous tissue of rats; assay: Anaphylactic release of histamine by fragments of dorsal subcutaneous tissue; parameters: species or system Wistar rats; details: ovoalbumin (300 μg/ml); for IC50: 60 min pre-treatment, read-out: IC50, inhibition of histamine release caused by anaphylatic stimulus
Experimental: Female and male Wistar rats were used, weighing between 180 and 200 g, they came from Oswaldo Cruz Foundation's Center of Laboratory Animal Raising. The procedures involving the animals were examined and approved by Oswaldo Cruz Foundation's Committee of Animal Ethics (CEUA-FIOCRUZ, Port. 00085-02). The rats were sensitized with a subcutaneous injection containing a mixture of 50 μg ovalbumina plus 5 mg Al(OH)3. Fourteen days after the sensitization the animals were sacrificed in a chamber of CO2, to have their dorsal hypodermis removed which was fragmented into smaller segments of about 3 mm in a Petri dish containing PBS. The fragments were individually transferred to a dish with 48 pools containing 500 μl of Hanks with Ca^++ and Mg^++.
Five experimental groups were studied in quadruplicates:
I. Saline group, negative control, pools where the tissue was neither treated nor stimulated;
II. Ovoalbumin group, positive control, pools where the tissue was not treated but it was stimulated by ovoalbumin (300 μg/ml);
III. JM24-1 group, pools where the tissue was previously treated with JM24-1 before the stimulation with ovoalbumin (300 μg/ml);
IV. JM25-1 group, pools where the tissue was previously treated with JM25-1 before the stimulation with ovoalbumin (300 μg/ml);
V. JMF2-1 group, pools where the tissue was previously treated with JMF2-1 before the stimulation with ovoalbumin (300 μg/ml).
Treated and non-treated pools were kept at 37° C. in a metabolic incubator (atmosphere containing 95% O2 and 5% CO2) for 60 minutes before the antigenic challenge. After the addition of ovoalbumin (300 μg/ml) all the pools were incubated again in a metabolic oven for more than 60 minutes. After removal of tissue for drying and weighing, the culture medium was collected and acidified with perchloric acid 0.4 N being, after centrifugation 150×g for 10 min. stocked at −20° C. until the moment of fluorimetric quantifying of histamine, according to the previous work. The values were shown like nanograms of released histamine by mg of tissue (dry weight).

Structure (SMILES) | IC50 [1] | IC50 [2] | inhibition of anaphylactic histamine release, result in words [3] | IC50 [3]
CCN(CC)CC(=O)Nc1cccc(C)c1C [JM23-1, 2-dyethylamine-2′,3′-acetoxylidide] | 330 µM | 380 ± 60 µM | inactive | 
CCN(CC)CC(=O)Nc1ccc(C)cc1C [JM24-1, 2-dyethylamine-2′,4′-acetoxylidide] | 190 ± 40 µM | 310 ± 60 µM | concentrations comparable to that of lidocaine | 6.46 µM
CCN(CC)CC(=O)Nc1c(C)cccc1C [Lidocaine, 1-(2-(dyethylamine)N-dymethylfenyl)-acetamide, reference compound] | 1430 ± 90 µM | 1410 ± 120 µM |  | 4.5 µM
